# Test results taken from US11285218B2, “Degradation of bromodomain-containing protein 9 (BRD9) by conjugation of BRD9 inhibitors with E3 ligase ligand and methods of use” (Dana-Farber Cancer Institute, Inc., priority 2016, dated 2022).
# “Also recorded” adds a separate entry of the source.
# How the values were obtained:
# MV411 cell line = experiment: ATPlite viability assay, MV4;11; conditions: MV4;11, 72 hours; in words
# Protocol: (§2) 500 cells/well were plated at a volume of 40 μL/well in white tissue culture treated 384 well assay plates (Thermo Scientific) before DMSO compound stock was added from pre-diluted plates by pin transfer using a Janus Workstation (PerkinElmer, USA). […] Assay plates were allowed to equilibrate to RT for 30 min before reconstituted ATPlite 1 Step reagent (Perkin Elmer) was dispensed at 1:1 volume/well by EL406 automated liquid handler (Biotek, USA).
# [1] = target: BRD9:CRBN-DDB1 protein complex (Homo sapiens, UniProt Q96SW2+Q9H8M2); experiment: BRD9:CRBN-DDB1 dimerization assay (luminescence); conditions: for formation of the BRD9:CRBN-DDB1 protein complex: in words
# Protocol: To measure this activity, a homogenous luminescence assay was developed to report on compound-induced proximity of BRD9 and CRBN.
# (§3) To detect CRBN-DDBI/BRD4 dimerization, we adapted bead-based AlphaScreen technology. […] Compounds were then pinned at 100 nL per well from DMSO stock. After 1 incubation at room temperature. Nickel Chelate AlphaLISA Acceptor and Glutathione AlphaLISA Donor beads (PerkinElmer) were diluted in assay buffer to 20 μg/mL and added at 20 μl per well.
# BRD9 [2] = target: T1, BRD9 (Homo sapiens, UniProt Q9H8M2); experiment: BRD9 degradation / cellular activity (Western blot, cell line not stated); conditions: cell line not given
# T1 sequence (Q9H8M2 1-597): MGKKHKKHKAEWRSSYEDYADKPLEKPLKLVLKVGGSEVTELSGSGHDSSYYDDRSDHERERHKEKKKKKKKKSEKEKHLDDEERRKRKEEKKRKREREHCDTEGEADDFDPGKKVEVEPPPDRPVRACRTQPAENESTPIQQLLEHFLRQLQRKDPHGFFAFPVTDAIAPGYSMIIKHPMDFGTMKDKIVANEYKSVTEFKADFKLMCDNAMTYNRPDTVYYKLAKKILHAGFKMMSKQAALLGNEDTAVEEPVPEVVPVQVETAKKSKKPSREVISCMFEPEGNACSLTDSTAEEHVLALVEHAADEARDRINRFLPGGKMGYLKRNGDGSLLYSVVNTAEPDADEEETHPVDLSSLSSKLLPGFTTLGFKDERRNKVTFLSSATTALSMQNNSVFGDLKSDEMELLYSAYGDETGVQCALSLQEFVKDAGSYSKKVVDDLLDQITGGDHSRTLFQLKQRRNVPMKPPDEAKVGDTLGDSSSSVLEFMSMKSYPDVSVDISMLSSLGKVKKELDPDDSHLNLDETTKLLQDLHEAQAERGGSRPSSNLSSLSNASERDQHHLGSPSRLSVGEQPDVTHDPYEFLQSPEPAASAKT
# BRD9 [3] = target: T1, BRD9; experiment: BRD9 immunoblot in MOLM-13
# Protocol: In additional experiments, cells were washed with PBS, before being lysed in RIPA buffer supplemented with 1×HALT™ protease inhibitor cocktail (Thermo Scientific) for 10 min on ice, followed by low-amplitude sonication for 10 seconds at 4° C. […] In soluble material was removed by centrifugation at 20,000×g for 20 min before protein content was quantified by BCA assay (Pierce). […] Blots were imaged using fluorescence-labeled secondary antibodies (LI-COR) on the OdysseyCLxImager (LI-COR).
# [4] = tested on: 32 members of the human bromodomain family; experiment: BromoScan single-point screen, panel profile; format: binding; conditions: single-point 1 μM, 32 bromodomains; in words
# Excerpt: (§1) The BromoScan is an assay that measures the engagement of compounds with bromodomain proteins by utilizing DNA-tagged bromodomain and immobilized ligand attached to solid support. In the control test, DNA-tagged bromodomain binds to the ligand and the bromodomain is captured on the solid support. Compounds that compete for the bromodomain binding location on the ligand will prevent the bromodomain from binding, resulting in less protein captured on the solid support.
# TRIM33 (PHD, Bromo.) = experiment: BromoScan single-point screen; format: binding, human; conditions: percent of protein captured on solid support vs control
# Excerpt: as §1
# BRD4 = BRD4 (Homo sapiens, UniProt O60885); experiment: BRD4 immunoblot in MOLM-13; conditions: MOLM-13, 4 hour treatment
# Protocol: In additional experiments, cells were washed with PBS, before being lysed in RIPA buffer supplemented with 1×HALT™ protease inhibitor cocktail (Thermo Scientific) for 10 min on ice, followed by low-amplitude sonication for 10 seconds at 4° C. (Q125, QSonica, USA). In soluble material was removed by centrifugation at 20,000×g for 20 min before protein content was quantified by BCA assay (Pierce). […] Blots were imaged using fluorescence-labeled secondary antibodies (LI-COR) on the OdysseyCLxImager (LI-COR).
# [5] = target: BRD4:CRBN-DDB1 protein complex (Homo sapiens, UniProt O60885+Q96SW2); experiment: CRBN-DDB1/BRD4 dimerization assay (luminescence); conditions: in words
# Protocol: as §3
# [6] = tested on: MM.1S multiple myeloma line; experiment: ATPlite viability assay, MM.1S; conditions: 72 hour treatment, in words
# Protocol: as §2
# CRBN-DDB1 = target: T2, CRBN-DDB1 (Homo sapiens, UniProt Q96SW2); experiment: CRBN-DDB1 ligand-displacement AlphaScreen; format: binding; conditions: purified CRBN-DDB1 ligand displacement
# T2 construct: made in house; host or cells: Sf9 cells (Invitrogen)
# Protocol: Following a 30 min incubation, 20 uL detection solution containing Streptavidin Donor Beads and Nickel Chelate AlphaLISA® Acceptor Beads diluted to 20 ng/uL in assay buffer was added to each well.
# BRD9 [7] = target: T3, BRD9 (Homo sapiens, UniProt Q9H8M2); experiment: BromoScan single-point screen; format: binding; conditions: percent of protein captured on solid support vs control
# T3 construct: utilizing DNA-tagged bromodomain and immobilized ligand attached to solid support
# Excerpt: as §1
# WDR9(2) = target: T4, WDR9(2) (Homo sapiens, UniProt Q9NSI6); experiment: BromoScan single-point screen; format: binding; conditions: percent of protein captured on solid support vs control
# T4 construct: utilizing DNA-tagged bromodomain and immobilized ligand attached to solid support
# Excerpt: as §1
# TRIM24 (PHD, Bromo.) = target: T5, TRIM24 (PHD, Bromo.) (Homo sapiens, UniProt O15164); experiment: BromoScan single-point screen; format: binding; conditions: percent of protein captured on solid support vs control
# T5 construct: utilizing DNA-tagged bromodomain and immobilized ligand attached to solid support
# Excerpt: as §1
# BAZ^2B = target: T6, BAZ^2B (Homo sapiens, UniProt Q9UIF8); experiment: BromoScan single-point screen; format: binding; conditions: percent of protein captured on solid support vs control
# T6 construct: utilizing DNA-tagged bromodomain and immobilized ligand attached to solid support
# Excerpt: as §1
# GCN5L2 = target: T7, GCN5L2 (Homo sapiens, UniProt Q92830); experiment: BromoScan single-point screen; format: binding; conditions: percent of protein captured on solid support vs control
# T7 construct: utilizing DNA-tagged bromodomain and immobilized ligand attached to solid support
# Excerpt: as §1
# BRD3(1) = target: T8, BRD3(1) (Homo sapiens, UniProt Q15059); experiment: BromoScan single-point screen; format: binding; conditions: percent of protein captured on solid support vs control
# T8 construct: utilizing DNA-tagged bromodomain and immobilized ligand attached to solid support
# Excerpt: as §1
# BRD7 = target: T9, BRD7 (Homo sapiens, UniProt Q9NPI1); experiment: BromoScan single-point screen; format: binding; conditions: percent of protein captured on solid support vs control
# T9 construct: utilizing DNA-tagged bromodomain and immobilized ligand attached to solid support
# Excerpt: as §1
# PBRM1(5) = target: T10, PBRM1(5) (Homo sapiens, UniProt Q86U86); experiment: BromoScan single-point screen; format: binding; conditions: percent of protein captured on solid support vs control
# T10 construct: utilizing DNA-tagged bromodomain and immobilized ligand attached to solid support
# Excerpt: as §1
# BRPF3 = target: T11, BRPF3 (Homo sapiens, UniProt Q9ULD4); experiment: BromoScan single-point screen; format: binding; conditions: percent of protein captured on solid support vs control
# T11 construct: utilizing DNA-tagged bromodomain and immobilized ligand attached to solid support
# Excerpt: as §1
# BRD4(2) = target: T12, BRD4(2) (Homo sapiens, UniProt O60885); experiment: BromoScan single-point screen; format: binding; conditions: percent of protein captured on solid support vs control
# T12 construct: utilizing DNA-tagged bromodomain and immobilized ligand attached to solid support
# Excerpt: as §1
# PBRM1(2) = target: T13, PBRM1(2) (Homo sapiens, UniProt Q86U86); experiment: BromoScan single-point screen; format: binding; conditions: percent of protein captured on solid support vs control
# T13 construct: utilizing DNA-tagged bromodomain and immobilized ligand attached to solid support
# Excerpt: as §1
# SMARCA4 = target: T14, SMARCA4 (Homo sapiens, UniProt P51532); experiment: BromoScan single-point screen; format: binding; conditions: percent of protein captured on solid support vs control
# T14 construct: utilizing DNA-tagged bromodomain and immobilized ligand attached to solid support
# Excerpt: as §1
# BRPF1 = target: T15, BRPF1 (Homo sapiens, UniProt P55201); experiment: BromoScan single-point screen; format: binding; conditions: percent of protein captured on solid support vs control
# T15 construct: utilizing DNA-tagged bromodomain and immobilized ligand attached to solid support
# Excerpt: as §1
# FALZ = target: T16, FALZ (Homo sapiens, UniProt Q12830); experiment: BromoScan single-point screen; format: binding; conditions: percent of protein captured on solid support vs control
# T16 construct: utilizing DNA-tagged bromodomain and immobilized ligand attached to solid support
# Excerpt: as §1
# SMARCA2 = target: T17, SMARCA2 (Homo sapiens, UniProt P51531); experiment: BromoScan single-point screen; format: binding; conditions: percent of protein captured on solid support vs control
# T17 construct: utilizing DNA-tagged bromodomain and immobilized ligand attached to solid support
# Excerpt: as §1
# BRD4(1) = BRD4(1) (Homo sapiens, UniProt O60885); experiment: BRD4(1) ligand-displacement AlphaScreen; format: binding; set-up: substituting protein and biotin-probe components for BRD4(1) protein at 20 nM final; His tag (inferred from Ni-coated acceptor beads)
# [8] = luminescence detection of dimerization assay
# T15 sequence (P55201 628-732 limits assumed): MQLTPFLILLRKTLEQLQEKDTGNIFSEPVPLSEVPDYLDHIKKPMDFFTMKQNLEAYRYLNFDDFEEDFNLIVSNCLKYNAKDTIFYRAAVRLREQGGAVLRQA
# T14 sequence (P51532 1453-1564 limits assumed): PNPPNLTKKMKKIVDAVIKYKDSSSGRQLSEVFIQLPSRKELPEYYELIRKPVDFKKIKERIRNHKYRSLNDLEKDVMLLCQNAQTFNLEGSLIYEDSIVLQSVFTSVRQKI
# T7 sequence (Q92830 728-832 limits assumed): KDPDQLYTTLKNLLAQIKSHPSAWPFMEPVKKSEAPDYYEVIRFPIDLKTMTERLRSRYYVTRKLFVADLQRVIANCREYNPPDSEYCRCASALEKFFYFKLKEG
# T8 sequence (Q15059 34-140 limits assumed): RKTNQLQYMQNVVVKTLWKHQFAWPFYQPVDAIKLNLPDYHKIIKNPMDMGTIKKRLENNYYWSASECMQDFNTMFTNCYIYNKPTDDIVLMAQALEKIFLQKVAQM
# T5 sequence (O15164 824-1006 limits assumed): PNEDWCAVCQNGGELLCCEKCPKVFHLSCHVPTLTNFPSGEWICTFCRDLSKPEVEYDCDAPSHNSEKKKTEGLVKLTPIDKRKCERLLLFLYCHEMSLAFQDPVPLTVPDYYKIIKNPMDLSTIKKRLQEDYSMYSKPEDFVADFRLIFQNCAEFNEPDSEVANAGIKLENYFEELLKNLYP
# T10 sequence (Q86U86 653-763 limits assumed): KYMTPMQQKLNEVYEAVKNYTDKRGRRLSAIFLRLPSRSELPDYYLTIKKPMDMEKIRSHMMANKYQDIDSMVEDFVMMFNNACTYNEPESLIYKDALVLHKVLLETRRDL
# T13 sequence (Q86U86 177-287 limits assumed): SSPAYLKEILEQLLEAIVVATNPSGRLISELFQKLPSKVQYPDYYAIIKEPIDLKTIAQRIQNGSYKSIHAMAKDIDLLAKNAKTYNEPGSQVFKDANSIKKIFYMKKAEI
# T17 sequence (P51531 1378-1506 limits assumed): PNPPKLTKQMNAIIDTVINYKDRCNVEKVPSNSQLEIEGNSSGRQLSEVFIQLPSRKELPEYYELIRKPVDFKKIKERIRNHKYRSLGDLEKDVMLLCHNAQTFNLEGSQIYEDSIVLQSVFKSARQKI
# T6 sequence (Q9UIF8 2060-2164 limits assumed): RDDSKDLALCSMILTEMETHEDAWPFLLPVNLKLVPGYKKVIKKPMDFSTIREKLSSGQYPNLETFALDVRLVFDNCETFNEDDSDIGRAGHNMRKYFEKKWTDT
# T9 sequence (Q9NPI1 131-235 limits assumed): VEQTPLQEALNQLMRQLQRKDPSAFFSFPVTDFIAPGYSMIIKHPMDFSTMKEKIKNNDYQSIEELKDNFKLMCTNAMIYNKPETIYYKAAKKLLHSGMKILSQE
# T4 sequence (Q9NSI6 1313-1418 limits assumed): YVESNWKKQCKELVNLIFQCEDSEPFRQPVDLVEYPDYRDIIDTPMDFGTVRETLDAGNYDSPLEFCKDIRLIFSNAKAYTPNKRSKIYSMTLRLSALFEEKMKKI
# T11 sequence (Q9ULD4 589-693 limits assumed): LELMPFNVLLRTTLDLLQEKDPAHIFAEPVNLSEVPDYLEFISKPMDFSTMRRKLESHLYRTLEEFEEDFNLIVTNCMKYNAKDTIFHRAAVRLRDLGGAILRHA
smiles,measurement,setting,value
COc1cc(-c2cn(C)c(=O)c3cc(C(=N)NC4CCS(=O)(=O)CC4)sc23)ccc1OCC(=O)NCCCCCCCCNc1cccc2c1CN(C1CCC(=O)NC1=O)C2=O (stereo not drawn) [Compound I-17],half-maximal anti-proliferative concentration,MV411 cell line,low nanomolar
same,maximal efficacy on cell proliferation,MV411 cell line,significantly exceeded that of the more selective I-25
same,"BRD9:CRBN-DDB1 dimerization, comparison in words",[1],superior; also recorded: effectively induce biochemical association
same,BRD9:CRB9-DDB1 AUC,[1]; [8],80620
same,BRD9:CRB9-DDB1 Cmax,[1]; [8],26.2 nM
same,formation of the BRD9:CRBN-DDB1 protein complex,[1]; relative to unmodified pomalidomide,significantly induce formation of the complex
same,formation of the BRD9:CRBN-DDB1 protein complex,[1]; relative to unmodified thalidomide,significantly induce formation of the complex
same,"BRD9 degradation / cellular potency, in words",BRD9 [2],superior
same,time to near complete BRD9 loss,"BRD9 [3]; MOLM-13, 100 nM",≤ 1 h
same,return of BRD9 during treatment,"BRD9 [3]; MOLM-13, 100 nM, 24-hour treatment period",no detectable return
same,BRD9 protein level (immunoblot),"BRD9 [3]; MOLM-13, 4 hour treatment, indicated concentrations, in words",effectively downregulate BRD9 over a broad range of concentrations; also recorded: effectively downregulating BRD9 protein over a broad range of concentrations
same,bromodomain interaction profile,[4],also BRD7 and members of the BET family
same,% Ctrl @ 1 μM,"TRIM33 (PHD, Bromo.)",100 % Ctrl
same,BRD4 degradation (immunoblot),BRD4,"Off target degradation of BRD4, observed at high concentrations"
same,formation of the BRD4:CRBN-DDB1 protein complex,[5],effectively induce biochemical association
same,efficacy on viability,[6],comparable efficacy
same,IC50,CRBN-DDB1,11.2 nM
same,% Ctrl @ 1 μM,BRD9 [7],0.25 % Ctrl
same,% Ctrl @ 1 μM,WDR9(2),83 % Ctrl
same,% Ctrl @ 1 μM,"TRIM24 (PHD, Bromo.)",84 % Ctrl
same,% Ctrl @ 1 μM,BAZ^2B,74 % Ctrl
same,% Ctrl @ 1 μM,GCN5L2,62 % Ctrl
same,% Ctrl @ 1 μM,BRD3(1),5 % Ctrl
same,% Ctrl @ 1 μM,BRD7,0 % Ctrl
same,% Ctrl @ 1 μM,PBRM1(5),71 % Ctrl
same,% Ctrl @ 1 μM,BRPF3,85 % Ctrl
same,% Ctrl @ 1 μM,BRD4(2),40 % Ctrl
same,% Ctrl @ 1 μM,PBRM1(2),68 % Ctrl
same,% Ctrl @ 1 μM,SMARCA4,41 % Ctrl
same,% Ctrl @ 1 μM,BRPF1,7.6 % Ctrl
same,% Ctrl @ 1 μM,FALZ,60 % Ctrl
same,% Ctrl @ 1 μM,SMARCA2,68 % Ctrl
same,IC50,BRD4(1),1710 nM
